Experimental data as given in ChEMBL document CHEMBL1201862, “PubChem BioAssay data set” (2004).
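Cells were grown in 96-well plates and exposed to each compound for 48 hours at five concentrations; endpoints were interpolated linearly between bracketing concentrations, or set to the highest concentration if not reached. GI50 = concentration required for 50% inhibition of growth.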 Calls of active or inactive are those of the source. No stated cut-off is given here; in the data, active = GI50 up to about 1.1 µM and inactive = higher.

Experiments:
Assay in all cases: growth of human tumour cells (NCI), 48 h
[1] = test system: M19-MEL
[2] = test system: NCI-H460
[3] = test system: IGROV-1
[4] = test system: OVCAR-8
[5] = test system: KM-20L2
[6] = test system: UACC-62
[7] = test system: NCI-H23
[8] = test system: EKVX
[9] = test system: HT-29
[10] = test system: ACHN
[11] = test system: A549
[12] = test system: HOP-62
[13] = test system: SNB-78
[14] = test system: SF-295
[15] = test system: CCRF-CEM
[16] = test system: OVCAR-5
[17] = test system: KM12
[18] = test system: SK-MEL-28
[19] = test system: NCI-H226
[20] = test system: RXF 393
[21] = test system: HCT-116
[22] = test system: A498
[23] = test system: TK-10
[24] = test system: M14
[25] = test system: SR
[26] = test system: DMS-273
[27] = test system: SK-OV-3
[28] = test system: UACC-257
[29] = test system: DMS-114
[30] = test system: HOP-92
[31] = test system: NCI-H522
[32] = test system: HL-60
[33] = test system: U-251
[34] = test system: MOLT-4
[35] = test system: RXF 631
[36] = test system: SNB-19
[37] = test system: COLO 205
[38] = test system: RPMI-8226
[39] = test system: LOX IMVI
[40] = test system: SW-620
[41] = test system: SF-268
[42] = test system: SK-MEL-5
[43] = test system: LXFL 529
[44] = test system: 786-0
[45] = test system: HCC 2998
[46] = test system: OVCAR-4
[47] = test system: CAKI-1
[48] = test system: HOP-18
[49] = test system: HCT-15
[50] = test system: OVCAR-3
[51] = test system: SK-MEL-2
[52] = test system: SF-539
[53] = test system: DLD-1
[54] = test system: K562
[55] = test system: UO-31
[56] = test system: SNB-75
[57] = test system: Malme-3M
[58] = test system: SN12C

Measured: GI50

NCC(=O)NC(CCCC(NC(=O)CN)P(=O)(O)O)P(=O)(O)O (centres undefined)
inactive: [1] > 100 µM | [2] > 100 µM | [3] > 100 µM | [4] > 100 µM | [5] > 100 µM | [6] > 100 µM | [7] > 100 µM | [8] > 100 µM | [9] > 100 µM | [10] > 100 µM | [11] > 100 µM | [12] > 100 µM | [13] > 100 µM | [14] > 100 µM | [15] > 100 µM | [16] > 100 µM | [17] > 100 µM | [18] > 100 µM | [19] 26 µM | [20] > 100 µM | [21] > 100 µM | [22] > 100 µM | [23] > 100 µM | [24] > 100 µM | [25] > 100 µM | [26] > 100 µM | [27] > 100 µM | [28] > 100 µM | [29] > 100 µM | [30] > 100 µM | [31] > 100 µM | [32] > 100 µM | [33] > 100 µM | [34] > 100 µM | [35] > 100 µM

O=C(Cc1nc2ccccc2o1)C(=O)Nc1cccc(C(F)(F)F)c1
> 100 µM: [49]
inactive: [1] > 100 µM | [36] > 100 µM | [2] > 100 µM | [37] > 100 µM | [38] > 100 µM | [3] > 100 µM | [4] > 100 µM | [5] > 100 µM | [6] > 100 µM | [39] > 100 µM | [40] > 100 µM | [41] > 100 µM | [7] > 100 µM | [42] > 100 µM | [8] > 100 µM | [9] > 100 µM | [10] > 100 µM | [11] > 100 µM | [12] > 100 µM | [13] > 100 µM | [14] > 100 µM | [43] > 100 µM | [44] > 100 µM | [45] > 100 µM | [46] > 100 µM | [47] > 100 µM | [48] 45 µM | [15] > 100 µM | [16] > 100 µM | [17] > 100 µM | [18] > 100 µM | [19] > 100 µM | [50] > 100 µM | [21] > 100 µM | [22] > 100 µM | [51] > 100 µM | [52] > 100 µM | [23] > 100 µM | [24] > 100 µM | [53] > 100 µM | [26] > 100 µM | [27] > 100 µM | [28] > 100 µM | [29] > 100 µM | [30] > 100 µM | [31] > 100 µM | [54] > 100 µM | [55] > 100 µM | [32] > 100 µM | [33] > 100 µM | [56] > 100 µM | [34] > 100 µM | [57] > 100 µM | [35] > 100 µM | [58] > 100 µM

N#CC(/C(=N/NC(=O)C(=O)NN)C(=O)NC12CC3CC(CC(C3)C1)C2)c1ccccc1 (centres undefined)
> 100 µM: [49]
inactive: [1] > 100 µM | [36] > 100 µM | [2] > 100 µM | [37] > 100 µM | [38] > 100 µM | [3] > 100 µM | [4] > 100 µM | [5] > 100 µM | [6] > 100 µM | [39] > 100 µM | [40] > 100 µM | [41] > 100 µM | [7] > 100 µM | [42] > 100 µM | [8] > 100 µM | [9] > 100 µM | [10] > 100 µM | [11] > 100 µM | [12] > 100 µM | [13] > 100 µM | [14] > 100 µM | [43] > 100 µM | [44] > 100 µM | [45] > 100 µM | [46] > 100 µM | [47] > 100 µM | [48] > 100 µM | [15] > 100 µM | [16] > 100 µM | [17] > 100 µM | [18] > 100 µM | [19] > 100 µM | [50] > 100 µM | [20] > 100 µM | [21] > 100 µM | [22] > 100 µM | [51] > 100 µM | [52] > 100 µM | [23] > 100 µM | [24] > 100 µM | [25] > 100 µM | [53] > 100 µM | [26] > 100 µM | [27] > 100 µM | [28] > 100 µM | [29] > 100 µM | [30] > 100 µM | [31] > 100 µM | [54] > 100 µM | [55] > 100 µM | [32] > 100 µM | [33] > 100 µM | [56] > 100 µM | [34] > 100 µM | [57] > 100 µM | [35] > 100 µM | [58] > 100 µM
